Here are results for one compound from article PMC12483202, “Pharmacokinetic profile of oral firocoxib in the koala (Phascolarctos cinereus)” (PLOS One, 2025).

Where two headings read alike, the source gives them in different places.

On the set-up of series [1]: method as in ref [7] of S9 Table. As to conditions: Calves (10); PO 0.5 mg/kg; ref [7] of S9 Table; cited from earlier work.
Another series deals with osteoarthritis in horses. More on the design: method as in PMID 36684818. As to conditions: cited from earlier work.
The subject of the next series is koalas. As to the kind of experiment: Clinical observations, haematology and biochemistry after repeat dosing. Conditions: for Phos: reference interval 0.87-2.47. Format: in vivo, koala (Phascolarctos cinereus).
The test system of a further series is elephant plasma proteins. More on the design: method as in PMID 37428699, PMID 38453490. As to conditions: African and Asian elephants; rapid equilibrium dialysis; cited from earlier work. On the technique in general: In equilibrium dialysis only unbound substance equilibrates across the membrane.
Details of series [2]: method as in ref [5] of S9 Table. As to conditions: Camels (5); IV 0.1 mg/kg; ref [5] of S9 Table; cited from earlier work.
The subject of series [3] is equine ischaemic intestinal injury. More on the design: method as in PMID 19645580. Conditions: cited from earlier work.
Another series deals with equine plasma proteins. More on the design: method as in PMID 17472652. Conditions: radiolabelled firocoxib; cited from earlier work.
The test system of series [4] is ovariohysterectomised cats. More on the design: method as in PMID 27515266. Conditions: 3 mg/kg/day, cited from earlier work.

Procedure for koalas: Samples were centrifuged at 1500 x g for 10 minutes, within 1 h of collection; the plasma was immediately stored at –80 °C and protected from light until drug quantification. […] Clinical observations for the presence of adverse effects in the animals treated included measurement of vital signs, appetite, body weight, faecal consistency and overall behaviour and mobility.

Regarding `CC1(C)OC(=O)C(OCC2CC2)=C1c1ccc(S(C)(=O)=O)cc1` [firocoxib], in series [1], the Cmax is 127.9 ng/mL and the t1/2 is reported as 18.8 h. In addition, in the series on osteoarthritis in horses, the “efficacy for controlling pain and inflammation associated with osteoarthritis” value is listed as “good efficacy”. In addition, in the series on koalas (in vivo), the “appetite, behaviour and mobility” value was “no change from normal appetite, behaviour and mobility”; the body weight result is on record as “maintained stable body weight”. In the series on koalas (koala K2, 72 h, after repeated dosing 5 mg/kg every 12 h), this compound had a Phos of 1.48 mmol/L. Moreover, the Phos in the series with koalas (koala K6, 72 h, after repeated dosing 5 mg/kg every 12 h) came out at 1.37 mmol/L. In the series with koalas (koala K6, 72 h, after repeated dosing 5 mg/kg every 12 h, reference interval 132-143), this compound yielded a Na of 139 mmol/L. Further, the “binding to elephant plasma proteins” value in the series on elephant plasma proteins is listed as 45%. In addition, in series [2], the t1/2 was 5.75 h. Besides, the visceral analgesia result in series [3] (equine ischaemic intestinal injury) is “efficacious visceral analgesia”. Moreover, in series [3] (firocoxib compared with flunixin meglumine), the “mucosal barrier function recovery” value is recorded as “superior mucosal barrier function recovery”. Also, in the series on equine plasma proteins, the “bound in horse plasma” value is 97%. For the same compound, in series [4] (1 h prior to induction of anaesthesia and at 24 and 48 h post-surgery), the postoperative analgesia entry was “some analgesia”. Moreover, in series [4] (72 h after surgery), the azotaemia result was “two out of eight cats developed a reversible azotaemia”.

The Cmax is the maximum level reached in the sampled fluid or tissue.
